Results reported in US8158606B2, “β-L-2′-deoxynucleosides for the treatment of resistant HBV strains and combination therapies” (priority 2002, dated 2012).

How the values were obtained:
[1] = Single dose bioavailability of L-dC in the cynomologus monkey; assay type: in vivo, cynomolgus monkey; details: for AUC(0-t) / half-life: n=3, mean; for AUC(0-t): read-out: AUClast of L-dC; for half-life: in vivo
Method: The pharmacokinetics of L-dC following IV and oral administration of L-dC to cynomolgus monkeys was determined.

[2] = tested on: Human DNA polymerases and mitochondrial function; assay: Effect on human DNA polymerases and mitochondrial function in vitro
Text: Human DNA polymerases and mitochondrial function were not affected by L-dC in vitro. L-dC was non-cytotoxic to human peripheral blood mononuclear cells (PBMCs), bone marrow progenitor cells and numerous cell lines of human and other non-human mammalian origin.

[3] = Single-dose bioavailability of L-dC in the rhesus monkey
Method: (§11) The drug was detected and concentration determined using a reverse-phase HPLC technique. The blood and urine drug level data were analyzed by a non-modeling mathematical method and AUCs derived by the linear trapezoidal rule.

[4] = Bioavailability of the prodrugs of L-dC; details: cynomolgus monkey, plasma, po, 10 mg/kg
in vivo [5] = details: Sprague-Dawley, rat, 10 mg/kg
Method: The drug was detected and the concentration determined in plasma and urine using a reverse-phase HPLC technique. The data were analyzed by a non-modeling mathematical method and the AUCs derived by the linear trapezoidal rule.

human plasma proteins = assay type: in vitro ADME; details: ex vivo, ultrafiltration
[6] = tested on: M552V mutant HBV, cell line V1/C9; assay: Antiviral testing in stable HepG2 cell lines, EPA of intracellular nucleocapsids; assay type: cell-based, hepatitis B virus; details: M552V single mutant
Method: (§1) Recombinant DNA constructs corresponding to these lamivudine-resistant mutants were created by site directed mutagenesis. The test system comprised stable cell lines harboring each of the transfected mutant genomes, as well as a wild-type control HBV genome. The antiviral activity of LdT (telbivudine) and LdC, together with the control drugs lamivudine and PMEA, was determined against the mutant and wild-type HBV genomes in the respective test cell lines.
(§2) Endogenous Polymerase Assay (EPA) of cell lysate: Cells were grown in 12-well collagen plates to 100% confluency for 3-4 days and cytosolic lysates were prepared in 1 ml of 50 mM Tris-HCl pH 7.4, 150 mM NaCl, 5 mM MgCl2, 0.2% NP-40. EPAs were essentially performed as described (Seifer et al., 1998). […] The immobilized capsids were then washed, endogenous polymerase reactions were initiated in 50 ul reaction volume containing 50 mM Tris-HCl pH7.4, 75 mM NH4Cl, 1 mM EDTA, 20 mM MgCl2, 0.1 mM β-ME, 0.5% NP-40, 100 μM cold dGTP, TTP, dCTP, and 50 nM ^33P-dATP (Perkin Elmer Life Sciences Cat# NEG 612H), and incubated overnight at 37° C. Following digestion with 1 mg/ml of Proteinase K (Roche, Cat#1373196) for 1 h at 37° C., ^33P-labeled HBV DNA was liberated via phenol/chloroform extraction The nucleic acids were finally precipitated with equal volumes 5M NH4-acetate and 2.5 volumes 100% EtOH and separated on a 1% native agarose gel in Tris-borate buffer. Gels were either fixed with 7% TCA, then dried, or blotted onto positively charged nylon membrane (Pall Biodyne Plus Cat#60406) overnight at room temperature via capillary transfer in 0.4 N NaOH. Dried gels/membranes were exposed to a phosphoimager screen (Molecular Dynamics) overnight at room temperature, then scanned (Storm 860, Molecular Dynamics) and quantitated with ImageQuant (Molecular Dynamics) software.
(§3) 12-well Biocoat collagen I plates (Becton Dickinson Cat#35-4500) are seeded with cells at a density of 0.5-1×10^6 cells per well in 2 ml DMEM containing 5% FBS, 2 mM L-glutamine, 100 I.U. penicillin/100 μg/mL streptomycin, and 0.5 mg/mL G-418.
(§4) Drug dilutions are prepared freshly in 100% DMSO as 200× stocks. For each experiment, 4 aliquots of each drug dilution series are stored at −20° C. until used. Once cells reach confluency, drug treatment is initiated by adding 10 μL of drug dilution into 2 ml of fresh DMEM+5% FBS. […] The no-drug control well receives only 10 μl of DMSO. Cells are treated every other day with 2 mL of fresh drug/medium for a total of 8 days. Cell lysates are then collected on day 10 as described below:
(§5) Aspirate media and rinse cell monolayer carefully once with 1 mL of PBS.
(§6) Add 1 ml of lysis buffer (50 mM Tris-HCl pH 7.5/150 mM NaCl/5 mM MgCl2/0.2% NP-40). Store on ice for 30 min to 4 h.
(§7) Harvest lysed cells. Transfer to 1.5 ml microfuge tubes.
(§8) Clarify lysate by spinning for 5 min at RT and 14,000 rpm.
(§9) Transfer clarified lysate to fresh tubes. Snap-freeze on dry-ice and store at −80° C. until ready to continue with endogenous polymerase assays essentially as described above.
(§10) EC50's were generated from the phosphorimager data by curve fitting using Xlfit software.

[7] = tested on: L515M/M552V mutant HBV, cell line MV5/B3; assay: as above; assay type: cell-based, hepatitis B virus; details: Hepatitis B virus, HepG2, L515M/M552V, cell line MV5/B3; mean ± SD of three to four experiments; read-out: EC50
Method: as §1, §2, §3, §4, §5, §6, §7, §8, §9, §10

[8] = tested on: M552I mutant HBV, cell line I2; assay: as above; assay type: cell-based, hepatitis B virus; details: Hepatitis B virus, HepG2, M552I single mutant
Method: as §1, §2, §3, §4, §5, §6, §7, §8, §9, §10

[9] = tested on: L515M/M552I mutant HBV, cell line MI4; assay: as above; assay type: cell-based, hepatitis B virus; details: Hepatitis B virus, HepG2, L515M/M552I double mutant
Method: as §1, §2, §3, §4, §5, §6, §7, §8, §9, §10

[10] = Single-dose bioavailability of L-dC in the woodchuck; assay type: in vivo; details: for half-life: in vivo, read-out: t1/2 of L-dC (converted); for bioavailability: po, 10 mg/kg, L-dC 10 mg/kg PO vs IV; for AUC(0-t): read-out: AUCt→24 of L-dC
Method: Plasma drug levels, CL, ty, and F were determined.

in vivo [11] = details: rhesus monkey, po, 10 mg/kg
Method: as §11

[12] = cynomolgus monkey, blood, L-dC 10 mg/kg single IV dose
[13] = cynomolgus monkey, blood, L-dC 10 mg/kg single oral dose
[14] = rhesus monkey, blood, po, 10 mg/kg
[15] = plasma, L-dC 10 mg/kg single IV dose, mean
[16] = plasma, L-dC 10 mg/kg single PO dose, mean

## Nc1ccn([C@@H]2CC(O)[C@H](CO)O2)c(=O)n1 (stereo partly drawn) [L-dC, 2′-Deoxy-β-L-cytidine]
[1]; L-dC 10 mg/kg IV
  L-dC as share of the dose recovered in the urine: 94%
  administered dose recovered in urine within 2 hours: 71%
  renal clearance as share of total L-dC clearance: 87%
[1]; L-dC 10 mg/kg oral
  L-dC as share of drug excreted in the urine: ~69%
  administered oral dose recovered in urine after 72 hours: 15.5%
  administered oral dose recovered in urine within 12 hours: Approximately 8.5%
[1]; cynomolgus monkey, blood and urine, L-dC 10 mg/kg single IV dose, mean, read-out: renal clearance (CLR) (converted)
  CL renal: 7.67 mL/min/kg
[1]; cynomolgus monkey, blood, L-dC 10 mg/kg oral vs IV, mean, read-out: oral bioavailability (F)
  bioavailability: 16.4%
[1]; [12]
  Tmax: 0 h
  AUC(0-t): 81.1 µM·h
[1]; cynomolgus monkey, blood, L-dC 10 mg/kg single IV dose, mean, at 15 minutes post-dose
  Cmax: 95.7 µM
[1]; cynomolgus monkey, blood, L-dC 10 mg/kg single IV dose, mean, read-out: apparent volume of distribution (Vd)
  Vd: 1.22 L/kg
[1]; cynomolgus monkey, blood, L-dC 10 mg/kg single IV dose, mean, read-out: total clearance (CL) (converted)
  clearance: 8.83 mL/min/kg
[1]; [13]
  Cmax: 3.38 µM
  AUC(0-t): 13.7 µM·h
[1]; cynomolgus monkey, blood, L-dC 10 mg/kg single oral dose, mean
  Tmax: 2.33 h
[1]; cynomolgus monkey, L-dC 10 mg/kg single IV dose, read-out: t1/2 of L-dC (converted)
  half-life: 1.59 h
[1]; cynomolgus monkey, L-dC 10 mg/kg single oral dose, read-out: terminal t1/2 of L-dC (converted)
  half-life: 2.95 h
[2]
  effect on human DNA polymerases and mitochondrial function: not affected
[3]; L-dC 10 mg/kg oral
  L-dC as share of drug excreted in the urine: ~77%
  administered oral dose recovered in urine after 48 hours: 15%
  administered oral dose recovered in urine within 8 hours: Approximately 8.5%
[3]; rhesus monkey, blood and urine, po, 10 mg/kg
  CL renal: 4.55 mL/min/kg
[3]; [14]
  AUC: 12.2 µM·h
  Cmax: 3.23 µM
  Tmax: 0.83 h
  bioavailability: ~16%
[4]
  bioavailability: 16.4 ± 5%
In vivo [5]; po
  half-life: 2.52 h
In vivo [5]; female, iv
  half-life: 1.21 h
Human plasma proteins
  binding to human plasma proteins: 19.7%
[6]
  activity against the mutant, in words: retained almost complete activity
[7]
  EC50: ~780 µM
[8]
  EC50: > 1000 µM
[9]
  EC50: > 1000 µM
[10]; L-dC 10 mg/kg single IV dose, mean
  half-life: 2.85 h
[10]; L-dC 10 mg/kg single PO dose, mean
  half-life: 5.22 h
[10]; plasma, read-out: oral bioavailability (F), average
  bioavailability: 9.57%
[10]; plasma, read-out: oral bioavailability, range of animals
  bioavailability: 5.6 to 16.9%
[10]; plasma, L-dC 10 mg/kg single IV dose
  Tmax: 0 h
[10]; [15]
  Vd: 1.17 L/kg
  clearance: 6.5 mL/min/kg
[10]; plasma, L-dC 10 mg/kg single IV dose, mean, at 2 minutes post-dose
  Cmax: 112 µM
[10]; plasma, L-dC 10 mg/kg single IV dose, n=3, t = 0.033 hours, mean
  AUC(0-t): 174 µM·h
[10]; [16]
  Cmax: 1.37 µM
  Tmax: 3 h
[10]; plasma, L-dC 10 mg/kg single PO dose, n=3, t = 0.25 hours, mean
  AUC(0-t): 11.3 µM·h
In vivo [11]
  half-life: 3.34 h
